Assay results reported in patent US4622317A, “Treatment of skin over androgenicity using compositions containing pregnenolone” (priority 1985, dated 1986).

Columns and labels:
[1] = test system: 3β-hydroxysteroid dehydrogenase Δ^4-5 -isomerase (3βHSD); assay: in vitro inhibition of 3βHSD conversion of DHA in rat preputial gland homogenate; type: biochemical, rat (female Sprague-Dawley); conditions: rat preputial gland homogenate (2 mg protein), 1,2-^3 H-DHA + 100 nmoles DHA, 37° C.; four separate incubations; inhibitor concentration not given
Method: To assess the androgen inhibiting activity of pregnenolone, rat preputial gland was employed to investigate the in vitro androgenic action of DHA. […] A pair of the glands are situated in the prepuce of the rat of either sex weighing between 125-200 mg in an average 200 g rat, being slightly larger in the male animal. The animals employed were female Sprague-Dawley rats, 10-12 weeks old and weighing 225-300 g.
The experimental format, stated broadly, was to excise preputial glands from rats and prepare a homogenate therefrom. […] The metabolites were quantitated by removal from the thin layer plate and counting in a scintillation counter. By determining the extent of metabolite formation, the extent of inhibition of 3βHSD could be correspondingly determined. […]
Experiments were initially conducted to ensure that DHA and its metabolites could be separated chromatographically. […] The position of the steroid can be readily traced with this method. […] Elution and quantitative evaluation of steroids can be effected after removal of the iodine. […] For quantitation the plates were then scraped in 1 cm sections for radioassay of ^3 H in a Packard Tri-Carb liquid scintillation counter. Silica gel H blanks and ^3 H-standards (Packard Instrument Co.) were also counted. […]

[2] = test system: 3βHSD (female hamster flank organs); assay: in vivo inhibition of conversion of 1,2-^3 H-DHA to metabolites in flank organs of female hamsters; parameters: species or system female Syrian Golden Hamster; conditions: topical 1200 μg/0.1 ml acetone to each flank organ for 3 days
Excerpt: (§1) The effects of hormones and hormonally active substances on sebaceous glands can also be evaluated using the Syrian hamster flank organs as an animal model. The results of experiments using hamsters are valuable inasmuch as they can provide in vivo confirmation of the in vitro experiments like those described above using rat preputial gland. The flank organs, also called the costovertebral spot or the costovertebral organ, are sebaceous structures located on each flank of the animal. Like the sebaceous glands of the human and the preputial gland of the rat they are androgen dependent (Voigt and Hsia, 1973; Gomez and Frost, 1969; Frost and Gomez, 1973).
Hamster flank organs were accordingly used to test in vivo the androgenic inhibitory properties of pregnenolone.
Female Syrian Golden Hamsters were used in this experiment. […]
On the afternoon of day 3, an intracardial injection of 1,2-^3 H-DHA (5μCi/0.1 ml saline buffer solution) was given to both experimental groups anesthetized with ether. […] Each organ was then placed in a 16 mm×150 mm test tube containing methanol and was homogenized, extracted and analyzed for steroid metabolites by separating the metabolites using thin layer chromatography as described above, scraping the thus separated metabolites from the thin layer plates, and quantitating using a scintillation counter. […]
Results are shown in FIG. 2 expressed as DPM/mg tissue.

acne vulgaris = type: in vivo, human
Method: The following experiment was conducted and is a typical trial. In a double-blind clinical trial 23 patients with acne vulgaris volunteered to participate. Fifteen patients (11 females and 4 males) were given a 1% solution of pregnenolone dissolved in isopropanol containing 1% glycerol, and 8 patients (5 females and 3 males) were given a 1% solution of glycerol in isopropanol. Neither the patients nor the attending dermatologist knew whether or not the dispensed solution contained pregnenolone. The patients were instructed to stop using their previous medications for two weeks and then to apply the given solution to their faces twice daily. They were reexamined biweekly.

[3] = solubility of pregnenolone; type: physicochemical
[4] = background statement; cited from earlier work
[5] = test system: flank organ of female hamsters; conditions: topical, 5 days/week for 2 weeks; cited from earlier work
[6] = test system: skin / body of acne patients; conditions: cited from earlier work; for skin irritation and peeling: topical application
[7] = test system: female hamster flank organs; assay: stimulation of female hamster flank organs by topical DHA; type: in vivo; conditions: 12 μg, 60 μg, 120 μg to right side, 7 days/week for 6 weeks, female hamsters
Excerpt: as §1
The organ in the mature male hamster measures approximately 8 mm in diameter, is heavily pigmented and is covered with coarse dark hairs (Voigt and Hsia, 1973). The organ of the female animal is undeveloped, measuring about 2 mm in diameter, lightly pigmented, without dark hairs, and is at times difficult to see. The anatomical and histological changes in this organ in response to androgens have been described by Hamilton and Montagna (1950).
Before testing the anti-androgenic properties of pregnenolone on hamster flank organs and relying on the results, a centrally important question therefore needed to be answered--Could DHA be shown to stimulate growth in the flank organs? […]

skin = conditions: studies by the inventor and other laboratories; cited from earlier work
[8] = 1% pregnenolone in isopropanol containing 1% glycerol, twice daily, twelve weeks, 4 of 15 patients

In the case of CC(=O)[C@H]1CC[C@H]2[C@@H]3CC=C4C[C@@H](O)CC[C@]4(C)[C@H]3CC[C@]12C [pregnenolone, Δ^5-pregnene-3β-ol-20-one], the “inhibition of 3βHSD for DHA (percentage of total Δ^4 -3-keto product formed in absence of inhibitor)” value [1] is reported as 91-92%, the “total metabolites converted from 1,2-^3 H-DHA, treated versus control” value ([2]; DHA-stimulated, 1 hour after intracardial ^3 H-DHA (5 μCi)) is reported as “Significant differences (P<0.01)” and the “formation of testosterone, DHT and androstanediol, control versus treated” value ([2]; DPM/mg tissue in FIG. 2) is reported as “Control hamsters, not treated with inhibitor, show greater formation of testosterone, DHT and androstanediol”. The “patients with reduction of oiliness” value (acne vulgaris; 1% pregnenolone in isopropanol containing 1% glycerol, twice daily, twelve weeks, 2 of 15 patients) was 13%, the “patients with no change in lesions or oiliness” value (acne vulgaris; [8]) was 26% and the “patients with slight reduction of the number of lesions and a reduction in the oiliness of the skin” value (acne vulgaris; [8]) was 26%. For the same molecule, the “patients with definite improvement, with reduction in the size and number of lesions” value (acne vulgaris; 1% pregnenolone in isopropanol containing 1% glycerol, twice daily, twelve weeks, 5 of 15 patients) was 33%, the “beneficial effect in acne; prevention of new lesions” value (acne vulgaris; conclusion of the trial, continued use) was “beneficial effect in the treatment of acne, and that continued use of pregnenolone prevents the development of new lesions” and the “irritation or discomfort caused by topical application” value (acne vulgaris; human, in vivo) was “no complaint of irritation or discomfort”. For the same molecule, the “efficacy and acceptability compared with previous medications (patients' claims)” value (acne vulgaris; patients who had used other medications previously) was “more effective and more acceptable”, the solubility in alcohols ([3]; alcohols, such as isopropanol or mixtures with longer (C4 -C10) alkane or alkene chains) was “soluble” and the solubility in water ([3]; water) was “insoluble in water”. The “androgenic / hormonal activity” value [4] was “no known hormonal activity of its own”.
In the case of C[C@]12CCC(=O)C=C1CC[C@@H]1[C@@H]2CC[C@]2(C)C(=O)CC[C@@H]12 [androstenedione, Δ^4 -androstenedione], the “sebaceous gland growth and pigmentation of flank organ” value [5] is given as “unilateral stimulation of sebaceous gland growth and pigmentation”.
In the case of CC1=C(/C=C/C(C)=C/C=C/C(C)=C\C(=O)O)C(C)(C)CCC1 [Accutane, 13-Cis retinoic acid], the “blood lipids and liver toxicity” value ([6]; internal use) is given as “alters blood lipids and causes liver toxicity”.
For CC1=C(/C=C/C(C)=C/C=C/C(C)=C/C(=O)O)C(C)(C)CCC1 [retinoic acid], the “skin irritation and peeling” value [6] is given as “irritates the skin and causes the skin to peel”.
For C[C@]12CC[C@H]3[C@@H](CCC4=CC(=O)CC[C@@]43C)[C@@H]1CC[C@@H]2O [testosterone], the “sebaceous gland growth and pigmentation of flank organ” value [5] is listed as “unilateral stimulation of sebaceous gland growth and pigmentation”.
In the case of O=C(OOC(=O)c1ccccc1)c1ccccc1 [benzoyl peroxide], the “skin irritation and peeling” value [6] is given as “irritates the skin and causes the skin to peel”.
In the case of C[C@]12CC[C@H](O)CC1=CC[C@@H]1[C@@H]2CC[C@]2(C)C(=O)CC[C@@H]12 [DHA, dehydroepiandrosterone], the “stimulation of flank organs” value [7] is listed as “not only a local stimulation, but stimulation of both flank organs, hence systemic stimulation”, the “androgenic / hormonal activity” value [4] is listed as “only weak androgenic activity” and the “metabolism in the skin” value (skin) is listed as “readily metabolized in the skin to form potent androgenic steroids”.
For C[C@]12CCC(=O)C[C@@H]1CC[C@@H]1[C@@H]2CC[C@]2(C)[C@@H](O)CC[C@@H]12 [DHT, dihydrotestosterone], the “sebaceous gland growth and pigmentation of flank organ” value [5] is given as “unilateral stimulation of sebaceous gland growth and pigmentation”.
In the case of C[C@]12CC[C@@H](O)C[C@@H]1CC[C@@H]1[C@@H]2CC[C@]2(C)C(=O)CC[C@@H]12 [androsterone], the “sebaceous gland growth and pigmentation of flank organ” value [5] is given as “did not cause flank organ growth or increased pigmentation”.
For CC(=O)[C@H]1CC[C@H]2[C@@H]3CCC4=CC(=O)CC[C@]4(C)[C@H]3CC[C@]12C [progesterone], the “sebaceous gland growth and pigmentation of flank organ” value [5] is listed as “did not cause flank organ growth or increased pigmentation”.
In the case of C[C@]12CC[C@H](O)C[C@@H]1CC[C@@H]1[C@@H]2CC[C@]2(C)C(=O)CC[C@@H]12 [epiandrosterone], the “sebaceous gland growth and pigmentation of flank organ” value [5] is given as “did not cause flank organ growth or increased pigmentation”.
For C[C@]12CCC(=O)C=C1CC[C@@H]1[C@@H]2CC[C@@]2(C)[C@H]1CC[C@]2(C)O [methyltestosterone], the “sebaceous gland growth and pigmentation of flank organ” value [5] is given as “unilateral stimulation of sebaceous gland growth and pigmentation”.
